The values that follow come from patent publication US9636299B2, “Method for treating diabetic retinopathy” (XAVIER UNIVERSITY OF LOUISIANA, priority 2012, dated 2017).

Residues, ends and D or L forms follow the SMILES beside them.

Experiment [1] relates to occludin. Description: Streptozotocin-induced diabetic mice, retinal occludin protein by Western blot. The settings on record: 14 days. The format is in vivo, mouse. As to the method: Western Blotting. The hRMECs were harvested in M-PER Mammalian Protein Extraction Reagent (Thermo Fisher Scientific, Inc., Rockford, Ill.) containing protease inhibitor cocktail. The total protein concentration was determined using a BCA protein assay kit (Pierce, Rockford, Ill.). Equal amounts of protein were separated by electrophoresis on 5-20% SDS-polyacrylamide gels and transferred electrophoretically onto nitrocellulose membranes (Amersham, Little Chalfont, UK). […] To ensure the equal loading of protein in each lane, each membrane was stripped and re-probed with an antibody against β-actin, and the chemiluminescence was detected as described previously. After scanning the blots with a flatbed scanner, band intensities were analyzed using ImageJ (NIH) and the relative intensity values were normalized to control values. […]
To investigate the effects on the retinal tight junction protein occludin following topical eye drop (1% apoEdp) or systemic i/p injection (40 mg/kg) of apoEdp, retinas from enucleated mouse eyes were processed to harvest total RNA, and then one-step real-time RT-PCR was performed using mice occludin-specific mRNA expression. […] To correlate the occludin-specific mRNA data at a protein level, total proteins extracted from retinas of different experimental groups (FIG. 10) were analyzed using Western-blot to detect occludin-specific protein expression.

In experiment [2] the test system is endothelial nitric oxide synthase (eNOS). Description: eNOS expression in high glucose-treated hRMECs (Western blot). Format: cell-based, human. The settings on record: 100 μM apoEdp, 30 minute treatment. The text has this: Cell Culture. Primary cultures of human retina microvascular endothelial cells (hRMECs) were purchased from the Applied Cell Biology Research Institute and grown on attachment factor-coated plates in cell systems complete (CSC) medium (Cell Systems, Kirkland, Wash.) supplemented with 20% fetal bovine serum, culture boost (animal derived growth factors) and bac-off (antibiotics). The primary hRMECs were used in their passages 4 to 6. The 18-a.a. apoE mimetic peptide apoEdp (SEQ ID NO:3, Ac-LRKLRKRLLLRKLRKRLL-amide), derived from the human apolipoprotein E receptor-binding region (see SED ID NO:1) between residues 141 and 149, was synthesized (Genemed, Arlington, Tex.) with a purity of greater than 95%. The apoEdp peptide was dissolved in phosphate-buffered saline (“PBS”) at a concentration appropriate for further experimental use. […]
Western Blotting. […] The total protein concentration was determined using a BCA protein assay kit (Pierce, Rockford, Ill.). […] To ensure the equal loading of protein in each lane, each membrane was stripped and re-probed with an antibody against β-actin, and the chemiluminescence was detected as described previously. After scanning the blots with a flatbed scanner, band intensities were analyzed using ImageJ (NIH) and the relative intensity values were normalized to control values. […]

Experiment [3] concerns occludin. Description: Streptozotocin-induced diabetic mice, retinal occludin mRNA by real-time RT-PCR. Format: in vivo, mouse. The settings on record: 14 days, vs diabetic non-treated. As for the experimental part: RNA Extraction, Reverse Transcription, & PCR. Following euthanasia, mouse eyes were enucleated and placed immediately into RNAlater® RNA stabilization reagent (Qiagen, Hilden, Germany). Intraocular fluids were aspirated and pooled, and total cellular RNA was isolated using an RNeasy® Mini Kit (Qiagen) according to the manufacturer's instructions. Gene expression was measured at RNA level per 100 ng of total RNA using one-step RT-PCR kit (Bio-Rad, Hercules, Calif.). Four host genes (mouse GAPDH, mouse MMP2, mouse HPSE-1 (heparanase-1), and mouse MMP9) were analyzed to confirm relative quantitative expression levels. The primer pairs used were specifically designed and synthesized by Qiagen GmbH, Hilden, Germany (Quantitech Primer assay kit, for each host gene, catalog numbers QT01658692, QT00088396, QT00009555, and QT00040040, respectively). One-step Real-time quantitative RT-PCR reactions were performed in a 50-μL volume containing a solution of 1× supermix (iQ SYBR Green; Bio-Rad, Hercules, Calif.), 1 μM mix of forward and reverse primers, and 5 μL total RNA. A four-step protocol was used: denaturation, 3 minutes at 95° C.; amplification and quantification, 40 cycles of 15 seconds at 95° C. followed by 30 seconds at 60° C.; melting curve, 60 to 95° C. with a heating rate of 0.5° C. per second; followed by cooling (MyiQ Single Color Real-Time PCR Detection System; Bio-Rad). […]

For experiment [4], the system named is VEGF-induced ocular angiogenesis. The settings on record: rabbit eye model, reference 17; cited from earlier work.
A further experiment has as its system HS. Description: Streptozotocin-induced diabetic mice, loss of HS. The settings on record: either 14-day eye drop application or systemic i/p injection. The format is in vivo, mouse. As to the method: Streptozotocin (STZ) induced diabetes. Twelve week old C57Bl/6 mice were used for this study. Mice were induced to have diabetes by intraperitoneal injection of 170 μg/g of streptozotocin (Sigma Aldrich, St. Louis, Mo.). Controls were injected with a vehicle (0.01M sodium citrate buffer). On the third day after STZ treatment, mice tail veins were bled to test the hyperglycemic status using blood sugar detection kit (Lifescan; Johnson & Johnson, Milpitas, Calif.). Mice with blood sugar levels of >300 mg/dL on the third day after STZ treatment were considered diabetic. Eye drop treatment containing 1% apoEdp or vehicle PBS was continued 4 times a day for 14 consecutive days. Intra-peritoneal (i/p) injection containing 40 mg/kg of apoEdp or vehicle control PBS was administered once daily for 14 consecutive days. On the 15th day post-treatment, mice were euthanized, their eyes enucleated, and the retinas dissected out to use for mRNA or Western blot analysis.
Increased vascular permeability in diabetic retinopathy (DR) is reported to result in a concomitant increase of VEGF. The VEGF pathway is known to play a role in breakdown of the BRB through a mechanism involving the down regulation of tight junction proteins in the retinal microvasculature (20).

[5] abbreviates: 1% apoEdp eye drop 4 times a day.

`CC(=O)N[C@@H](CC(C)C)C(=O)N[C@@H](CCCNC(=N)N)C(=O)N[C@@H](CCCCN)C(=O)N[C@@H](CC(C)C)C(=O)N[C@@H](CCCNC(=N)N)C(=O)N[C@@H](CCCCN)C(=O)N[C@@H](CCCNC(=N)N)C(=O)N[C@@H](CC(C)C)C(=O)N[C@@H](CC(C)C)C(=O)N[C@@H](CC(C)C)C(=O)N[C@@H](CCCNC(=N)N)C(=O)N[C@@H](CCCCN)C(=O)N[C@@H](CC(C)C)C(=O)N[C@@H](CCCNC(=N)N)C(=O)N[C@@H](CCCCN)C(=O)N[C@@H](CCCNC(=N)N)C(=O)N[C@@H](CC(C)C)C(=O)N[C@@H](CC(C)C)C(N)=O` [apoEdp, Ac-LRKLRKRLLLRKLRKRLL-amide] (Ac-LRKLRKRLLLRKLRKRLL-NH2): the “Loss of occludin protein in retina” value in the experiment on occludin [1] (setting [5]) and with occludin [1] (i/p injection 40 mg/kg daily) was “significantly attenuated the loss” in each case. For the same compound, the “Elevated expression of eNOS induced by 30 mM D-glucose” value in experiment [2] is “prevented”. In addition, the “Down-regulation of occludin-specific mRNA in retina” value in the experiment on occludin [3] (setting [5]) and in the experiment with occludin [3] (i/p injection 40 mg/kg daily) was “significantly inhibited the down-regulation” throughout. The VEGF-induced ocular angiogenesis entry in experiment [4] is “blocks”. Further, in the experiment on HS, the “Loss of HS” value is “reversed”.
